From article PMC8645336, “Benchmarking a highly selective USP30 inhibitor for enhancement of mitophagy and pexophagy” (Life Science Alliance, 2021)

Legend:
Test in all cases: biochemical
Design in all cases: Ubiquigent DUB profiler selectivity panel, remaining enzyme activity as % of control
Conditions in all cases: read-out: % of control remaining
Cezanne = molecular target: T1, Cezanne (Homo sapiens, UniProt Q6GQQ9)
T1 construct: gene OTUD7B
T1 sequence (Q6GQQ9 1-843): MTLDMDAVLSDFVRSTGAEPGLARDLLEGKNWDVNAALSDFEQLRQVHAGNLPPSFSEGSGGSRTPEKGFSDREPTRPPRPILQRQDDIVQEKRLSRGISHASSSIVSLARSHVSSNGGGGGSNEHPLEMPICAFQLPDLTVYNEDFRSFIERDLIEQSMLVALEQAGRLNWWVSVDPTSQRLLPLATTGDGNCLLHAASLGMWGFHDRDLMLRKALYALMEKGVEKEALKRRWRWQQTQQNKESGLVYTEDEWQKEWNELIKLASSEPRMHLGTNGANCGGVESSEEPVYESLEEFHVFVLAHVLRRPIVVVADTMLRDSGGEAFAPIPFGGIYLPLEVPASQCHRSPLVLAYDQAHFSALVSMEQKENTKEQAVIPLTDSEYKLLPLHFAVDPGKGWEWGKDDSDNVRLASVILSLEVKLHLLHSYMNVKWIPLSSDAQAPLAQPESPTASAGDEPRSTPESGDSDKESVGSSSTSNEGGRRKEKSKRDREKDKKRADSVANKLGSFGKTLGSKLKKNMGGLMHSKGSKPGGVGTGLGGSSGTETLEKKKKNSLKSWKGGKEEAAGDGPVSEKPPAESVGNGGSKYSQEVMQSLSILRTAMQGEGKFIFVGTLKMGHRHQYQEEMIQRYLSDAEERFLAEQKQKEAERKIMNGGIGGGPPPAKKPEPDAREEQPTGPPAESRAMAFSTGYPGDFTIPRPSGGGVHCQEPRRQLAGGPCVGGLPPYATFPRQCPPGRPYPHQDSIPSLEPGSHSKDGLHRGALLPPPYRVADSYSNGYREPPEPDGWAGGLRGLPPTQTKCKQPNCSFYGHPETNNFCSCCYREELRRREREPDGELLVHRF
Outline: (§1)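 In YFP-PRKN-overexpressing hTERT-RPE1 cells, 1 h antimycin A plus oligomycin A (1 μM each) with CMPD-39, then Western blot of TOMM20 ubiquitylation. Target engagement: 2 h compound, then 10 min HA-Ub-PA at 37°C, read as USP30 shift. DUB panel (>40 enzymes) screened at 1-100 μM.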

USP15 = molecular target: T2, USP15 (Homo sapiens, UniProt Q9Y4E8)
T2 sequence (Q9Y4E8 1-981): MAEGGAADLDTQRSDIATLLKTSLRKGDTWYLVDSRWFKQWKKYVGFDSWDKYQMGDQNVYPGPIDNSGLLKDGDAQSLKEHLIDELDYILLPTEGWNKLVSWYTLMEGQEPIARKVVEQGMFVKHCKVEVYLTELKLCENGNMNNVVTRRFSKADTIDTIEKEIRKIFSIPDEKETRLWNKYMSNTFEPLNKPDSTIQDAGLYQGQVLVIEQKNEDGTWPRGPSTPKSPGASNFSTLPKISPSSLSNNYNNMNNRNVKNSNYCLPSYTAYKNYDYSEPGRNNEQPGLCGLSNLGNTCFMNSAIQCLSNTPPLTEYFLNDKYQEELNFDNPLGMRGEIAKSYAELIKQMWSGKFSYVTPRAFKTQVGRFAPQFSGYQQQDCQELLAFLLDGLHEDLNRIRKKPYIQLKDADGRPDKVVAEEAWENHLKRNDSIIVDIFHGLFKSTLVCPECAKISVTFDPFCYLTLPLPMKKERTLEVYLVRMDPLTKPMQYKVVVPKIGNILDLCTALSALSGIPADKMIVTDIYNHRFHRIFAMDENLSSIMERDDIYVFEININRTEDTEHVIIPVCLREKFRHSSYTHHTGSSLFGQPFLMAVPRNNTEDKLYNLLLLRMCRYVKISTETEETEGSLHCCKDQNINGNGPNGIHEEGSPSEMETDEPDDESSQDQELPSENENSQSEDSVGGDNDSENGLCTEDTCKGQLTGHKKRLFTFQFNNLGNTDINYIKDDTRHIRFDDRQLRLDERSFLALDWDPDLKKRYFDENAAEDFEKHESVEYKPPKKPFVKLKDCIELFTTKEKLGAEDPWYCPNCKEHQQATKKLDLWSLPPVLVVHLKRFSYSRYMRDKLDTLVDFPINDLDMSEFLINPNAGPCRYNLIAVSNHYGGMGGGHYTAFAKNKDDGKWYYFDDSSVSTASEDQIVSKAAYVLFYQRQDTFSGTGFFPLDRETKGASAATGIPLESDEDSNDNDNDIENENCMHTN
Outline: as §1

USP7 = USP7 (Homo sapiens, UniProt Q93009)
USP7, sequence (Q93009 whole entry): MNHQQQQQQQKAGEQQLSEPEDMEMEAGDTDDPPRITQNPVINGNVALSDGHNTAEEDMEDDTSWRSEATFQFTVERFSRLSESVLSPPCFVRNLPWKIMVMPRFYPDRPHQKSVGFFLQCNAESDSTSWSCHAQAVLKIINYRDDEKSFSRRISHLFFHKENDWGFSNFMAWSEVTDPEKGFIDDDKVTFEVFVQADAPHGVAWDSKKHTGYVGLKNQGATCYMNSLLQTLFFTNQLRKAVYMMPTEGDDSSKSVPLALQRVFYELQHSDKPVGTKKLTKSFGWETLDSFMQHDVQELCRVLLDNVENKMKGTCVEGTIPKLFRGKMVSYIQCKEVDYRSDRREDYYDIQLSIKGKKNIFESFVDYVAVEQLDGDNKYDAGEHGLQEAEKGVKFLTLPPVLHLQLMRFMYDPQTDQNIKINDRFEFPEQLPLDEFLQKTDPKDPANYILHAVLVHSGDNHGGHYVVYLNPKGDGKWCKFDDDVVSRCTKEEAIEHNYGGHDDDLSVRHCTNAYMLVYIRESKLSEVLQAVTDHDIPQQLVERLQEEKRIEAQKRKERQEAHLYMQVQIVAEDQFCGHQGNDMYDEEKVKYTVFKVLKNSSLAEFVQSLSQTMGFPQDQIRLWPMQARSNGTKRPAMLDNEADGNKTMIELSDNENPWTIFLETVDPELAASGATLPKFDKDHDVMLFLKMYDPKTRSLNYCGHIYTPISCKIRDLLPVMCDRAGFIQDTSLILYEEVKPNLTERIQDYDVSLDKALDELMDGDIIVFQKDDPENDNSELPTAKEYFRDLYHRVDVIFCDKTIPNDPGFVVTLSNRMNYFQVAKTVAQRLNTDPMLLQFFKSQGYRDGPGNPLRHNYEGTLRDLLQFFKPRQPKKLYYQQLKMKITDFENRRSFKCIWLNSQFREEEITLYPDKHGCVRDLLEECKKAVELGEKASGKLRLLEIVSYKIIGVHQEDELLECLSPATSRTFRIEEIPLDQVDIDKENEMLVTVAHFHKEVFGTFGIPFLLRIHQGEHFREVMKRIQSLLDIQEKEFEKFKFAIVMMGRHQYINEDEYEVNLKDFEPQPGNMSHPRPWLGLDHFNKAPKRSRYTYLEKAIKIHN
Outline: as §1

In the case of `CC(C)(C)NS(=O)(=O)c1ccc(NC(=O)[C@H](Cc2ccccc2)NC(=O)c2ccc(F)cc2)cc1` [compound 39, CMPD-39], the remaining activity at 1 µM (Cezanne) is reported as 98.7%, the remaining activity at 10 µM (Cezanne) is reported as 98.8% and the remaining activity at 100 µM (Cezanne) is reported as 94.4%. The remaining activity at 1 µM (USP15) was 103%, the remaining activity at 10 µM (USP15) was 101% and the remaining activity at 100 µM (USP15) was 98.1%. For the same molecule, the remaining activity at 1 µM (USP7) was 106%, the remaining activity at 10 µM (USP7) was 98.4% and the remaining activity at 100 µM (USP7) was 94.1%.
